“And” between values parts separate entries of the source, which are not always exact repeats. Equal entries are not always repeated.
Columns and labels:
[1] = target: T1, HCV NS3-NS4A protease (Hepatitis C virus genotype 1a, UniProt P27958); assay: HCV Ki Assay (enzyme, Example 5); type: biochemical; conditions: Ki values, tested according to Example 5 (enzyme); 5AB substrate, tNS3 with KK4A
T1 construct: The buffer, KK4A, DTT, and tNS3 were combined
Description: HPLC Microbore Method for Separation of 5AB Substrate and Products
NH2-Glu-Asp-Val-Val-(alpha)Abu-Cys-Ser-Met-Ser-Tyr-COOH
A stock solution of 20 mM 5AB (or concentration of your choice) was made in DMSO w/0.2M DTT. This was stored in aliquots at −20 C.
Buffer: 50 mM HEPES, pH 7.8; 20% glycerol; 100 mM NaCl
Total assay volume was 100 μL
The buffer, KK4A, DTT, and tNS3 were combined; distributed 78 μL each into wells of 96 well plate. This was incubated at 30 C for ˜5-10 min.
2.5 μL of appropriate concentration of test compound was dissolved in DMSO (DMSO only for control) and added to each well. This was incubated at room temperature for 15 min.
Initiated reaction by addition of 20 μL of 250 μM 5AB substrate (25 μM concentration is equivalent or slightly lower than the Km for 5AB).
Incubated for 20 min at 30 C.
Terminated reaction by addition of 25 μL of 10% TFA
Transferred 120 μL aliquots to HPLC vials
Separated SMSY product from substrate and KK4A by the following method:
Microbore Separation Method:
Instrumentation: Agilent 1100
Column thermostated chamber G1316A
Diode array detector G1315A
Solvent A=HPLC grade water+0.1% TFA
Solvent B=HPLC grade acetonitrile+0.1% TFA
Stop time: 17 min Post-run time: 10 min.

[2] = tested on: Cells containing hepatitis C virus (HCV) replicon; assay: HCV Replicon Cell Assay (Example 4); type: cell-based; conditions: 48 h, tested according to Example 4 (cell), 50% inhibition of HCV RNA level, 48-hour incubation
Description: HCV Replicon Cell Assay Protocol
Cells containing hepatitis C virus (HCV) replicon were maintained in DMEM containing 10% fetal bovine serum (FBS), 0.25 mg per ml of G418, with appropriate supplements (media A).
On day 1, replicon cell monolayer was treated with a trypsin:EDTA mixture, removed, and then media A was diluted into a final concentration of 100,000 cells per ml wit. 10,000 cells in 100 ul were plated into each well of a 96-well tissue culture plate, and cultured overnight in a tissue culture incubator at 37° C.
On day 2, compounds (in 100% DMSO) were serially diluted into DMEM containing 2% FBS, 0.5% DMSO, with appropriate supplements (media B). The final concentration of DMSO was maintained at 0.5% throughout the dilution series.
Media on the replicon cell monolayer was removed, and then media B containing various concentrations of compounds was added. Media B without any compound was added to other wells as no compound controls.
Cells were incubated with compound or 0.5% DMSO in media B for 48 hours in a tissue culture incubator at 37° C. At the end of the 48-hour incubation, the media was removed, and the replicon cell monolayer was washed once with PBS and stored at −80° C. prior to RNA extraction.
Culture plates with treated replicon cell monolayers were thawed, and a fixed amount of another RNA virus, such as Bovine Viral Diarrhea Virus (BVDV) was added to cells in each well, RNA extraction reagents (such as reagents from RNeasy kits) were added to the cells immediately to avoid degradation of RNA. Total RNA was extracted according the instruction of manufacturer with modification to improve extraction efficiency and consistency. Finally, total cellular RNA, including HCV replicon RNA, was eluted and stored at −80° C. until further processing.
A Taqman real-time RT-PCR quantification assay was set up with two sets of specific primers and probe. One was for HCV and the other was for BVDV. Total RNA extractants from treated HCV replicon cells was added to the PCR reactions for quantification of both HCV and BVDV RNA in the same PCR well. Experimental failure was flagged and rejected based on the level of BVDV RNA in each well. The level of HCV RNA in each well was calculated according to a standard curve run in the same PCR plate. The percentage of inhibition or decrease of HCV RNA level due to compound treatment was calculated using the DMSO or no compound control as 0% of inhibition. The IC50 (concentration at which 50% inhibition of HCV RNA level is observed) was calculated from the titration curve of any given compound.

T1 sequence (P27958 1658-1711): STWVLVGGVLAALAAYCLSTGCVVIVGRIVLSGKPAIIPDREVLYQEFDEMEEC
T1 sequence (P27958 1027-1208): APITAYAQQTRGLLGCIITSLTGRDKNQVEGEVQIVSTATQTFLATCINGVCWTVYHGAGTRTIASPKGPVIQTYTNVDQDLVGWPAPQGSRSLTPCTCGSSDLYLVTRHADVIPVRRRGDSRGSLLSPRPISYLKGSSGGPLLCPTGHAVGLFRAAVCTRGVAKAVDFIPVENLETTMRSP

Row | Structure (SMILES) | Ki [1] | IC50 [2] [nM]
1 | CCC[C@H](NC(=O)[C@@H]1C[C@@H](Oc2ccc(Cl)cn2)CN1C(=O)[C@@H](NC(=O)[C@@H](NC(=O)[C@H](C)NC(=O)OC)C1CCCCC1)C(C)(C)C)C(=O)C(=O)NC1CC1 [Compound 69] | < 100 nM | –
2 | CCC[C@H](NC(=O)C1C[C@@H](Oc2cc(Cl)cc(Cl)c2)CN1C(=O)[C@@H](NC(=O)[C@@H](NC(=O)c1cnccn1)C1CCCCC1)C(C)(C)C)C(=O)C(=O)NC1CC1 (some centres unmarked) [Compound 12] | 100 to 300 nM | < 500
3 | CCCC(NC(=O)[C@H]1C[C@H](Oc2ccc(-c3ccccc3)nn2)CN1C(=O)C(NC(=O)C(NC(=O)c1cnccn1)C1CCCCC1)C(C)(C)C)C(=O)C(=O)NC1CC1 (some centres unmarked) [Compound 28] | > 300 nM | –
4 | CCC[C@H](NC(=O)[C@@H]1C[C@@H](Oc2ccc(OC)c3ccccc23)CN1C(=O)[C@@H](NC(=O)[C@@H](NC(=O)c1cnccn1)C1CCCCC1)C(C)(C)C)C(=O)C(=O)NC1CC1 [Compound 38] | < 100 nM | < 500
5 | CCC[C@H](NC(=O)[C@@H]1C[C@@H](Oc2ccccc2)CN1C(=O)[C@@H](NC(=O)[C@@H](NC(=O)c1cnccn1)C1CCCCC1)C(C)(C)C)C(=O)C(=O)NC1CC1 [Compound 35] | < 100 nM | < 500
6 | CCC[C@H](NC(=O)[C@@H]1C[C@@H](Oc2ccc(CC#N)cc2)CN1C(=O)[C@@H](NC(=O)[C@@H](NC(=O)c1cnccn1)C1CCCCC1)C(C)(C)C)C(=O)C(=O)NC1CC1 [Compound 65] | 100 to 300 nM | < 500
7 | CCC[C@H](NC(=O)[C@@H]1C[C@@H](Oc2cccc(C(=O)OC)c2)CN1C(=O)[C@@H](NC(=O)[C@@H](NC(=O)c1cnccn1)C1CCCCC1)C(C)(C)C)C(=O)C(=O)NC1CC1 [Compound 45] | < 100 nM | < 500
8 | CCC[C@H](NC(=O)C1C[C@@H](Oc2cc(C(F)(F)F)cc(C(F)(F)F)c2)CN1C(=O)[C@@H](NC(=O)[C@@H](NC(=O)c1cnccn1)C1CCCCC1)C(C)(C)C)C(=O)C(=O)NC1CC1 (some centres unmarked) [Compound 11] | > 300 nM | > 1000
9 | CCC[C@H](NC(=O)[C@@H]1C[C@@H](Oc2ccccn2)CN1C(=O)[C@@H](NC(=O)[C@@H](NC(=O)c1cnccn1)C1CCCCC1)C(C)(C)C)C(=O)C(=O)NC1CC1 [Compound 58] | < 100 nM | < 500
10 | CCC[C@H](NC(=O)[C@@H]1C[C@@H](Oc2ccccc2Cl)CN1C(=O)[C@@H](NC(=O)[C@@H](NC(=O)c1cnccn1)C1CCCCC1)C(C)(C)C)C(=O)C(=O)NC1CC1 [Compound 20] | < 100 nM | 500 to 1000
11 | CCC[C@H](NC(=O)[C@@H]1C[C@@H](Oc2cccc(S(=O)(=O)NC)c2)CN1C(=O)[C@@H](NC(=O)[C@@H](NC(=O)c1cnccn1)C1CCCCC1)C(C)(C)C)C(=O)C(=O)NC1CC1 [Compound 47] | > 300 nM | < 500
12 | CCC[C@H](NC(=O)[C@@H]1C[C@@H](Oc2cc(OC)cc(OC)c2)CN1C(=O)[C@@H](NC(=O)[C@@H](NC(=O)c1cnccn1)C1CCCCC1)C(C)(C)C)C(=O)C(=O)NC1CC1 [Compound 24] | < 100 nM | < 500
13 | CCC[C@H](NC(=O)C1C[C@@H](Oc2ccccc2OC(F)(F)F)CN1C(=O)[C@@H](NC(=O)[C@@H](NC(=O)c1cnccn1)C1CCCCC1)C(C)(C)C)C(=O)C(=O)NC1CC1 (some centres unmarked) [Compound 9] | > 300 nM | –
14 | CCC[C@H](NC(=O)[C@@H]1C[C@@H](Oc2cccc(C(F)(F)F)c2)CN1C(=O)[C@@H](NC(=O)[C@@H](NC(=O)c1cnccn1)C1CCCCC1)C(C)(C)C)C(=O)C(=O)NC1CC1 [Compound 22] | 100 to 300 nM | < 500
15 | CCCC(NC(=O)[C@H]1C[C@H](Oc2ccnc(C(F)(F)F)n2)CN1C(=O)C(NC(=O)C(NC(=O)c1cnccn1)C1CCCCC1)C(C)(C)C)C(=O)C(=O)NC1CC1 (some centres unmarked) [Compound 29] | > 300 nM | –
16 | CCC[C@H](NC(=O)[C@@H]1C[C@@H](Oc2cccc3ccccc23)CN1C(=O)[C@@H](NC(=O)[C@@H](NC(=O)c1cnccn1)C1CCCCC1)C(C)(C)C)C(=O)C(=O)NC1CC1 [Compound 36] | < 100 nM | < 500

Row | Structure (SMILES) | Ki [1] | IC50 [2] [nM]
17 | CCC[C@H](NC(=O)[C@@H]1C[C@@H](Oc2cccc(Cl)c2)CN1C(=O)[C@@H](NC(=O)[C@@H](NC(=O)c1cnccn1)C1CCCCC1)C(C)(C)C)C(=O)C(=O)NC1CC1 [Compound 66] | 100 to 300 nM | < 500
18 | CCCC(NC(=O)[C@H]1C[C@H](Oc2ncccc2[N+](=O)[O-])CN1C(=O)C(NC(=O)C(NC(=O)c1cnccn1)C1CCCCC1)C(C)(C)C)C(=O)C(=O)NC1CC1 (some centres unmarked) [Compound 33] | 100 to 300 nM | –
19 | C=CCCC(=O)C(=O)[C@H](CCC)NC(=O)[C@@H]1C[C@@H](Oc2ccc(Cl)cn2)CN1C(=O)[C@@H](NC(=O)[C@@H](NC(=O)c1cnccn1)C1CCCCC1)C(C)(C)C [Compound 76] | 100 to 300 nM and > 300 nM | –
20 | CCC[C@H](NC(=O)[C@@H]1C[C@@H](Oc2ccc(C(=O)OC)cc2)CN1C(=O)[C@@H](NC(=O)[C@@H](NC(=O)c1cnccn1)C1CCCCC1)C(C)(C)C)C(=O)C(=O)NC1CC1 [Compound 52] | < 100 nM | –
21 | CCC[C@H](NC(=O)[C@@H]1C[C@@H](Oc2ccccc2-c2ccccc2)CN1C(=O)[C@@H](NC(=O)[C@@H](NC(=O)c1cnccn1)C1CCCCC1)C(C)(C)C)C(=O)C(=O)NC1CC1 [Compound 17] | > 300 nM | –
22 | CCC[C@H](NC(=O)[C@@H]1C[C@@H](Oc2cccc(Cl)n2)CN1C(=O)[C@@H](NC(=O)[C@@H](NC(=O)c1cnccn1)C1CCCCC1)C(C)(C)C)C(=O)C(=O)NC1CC1 [Compound 25] | 100 to 300 nM | –
23 | CCCC(NC(=O)[C@H]1C[C@H](Oc2nccc(C(F)(F)F)n2)CN1C(=O)C(NC(=O)C(NC(=O)c1cnccn1)C1CCCCC1)C(C)(C)C)C(=O)C(=O)NC1CC1 (some centres unmarked) [Compound 74] | > 300 nM | –
24 | CCCC(NC(=O)[C@H]1C[C@H](Oc2nccc(-c3ccccc3)c2C#N)CN1C(=O)C(NC(=O)C(NC(=O)c1cnccn1)C1CCCCC1)C(C)(C)C)C(=O)C(=O)NC1CC1 (some centres unmarked) [Compound 31] | 100 to 300 nM | –
25 | CCC[C@H](NC(=O)[C@@H]1C[C@@H](Oc2cccc(OC)c2OC)CN1C(=O)[C@@H](NC(=O)[C@@H](NC(=O)c1cnccn1)C1CCCCC1)C(C)(C)C)C(=O)C(=O)NC1CC1 [Compound 23] | 100 to 300 nM | –
26 | CCCC(NC(=O)[C@H]1C[C@H](Oc2ccc(C(F)(F)F)cn2)CN1C(=O)C(NC(=O)C(NC(=O)c1cnccn1)C1CCCCC1)C(C)(C)C)C(=O)C(=O)NC1CC1 (some centres unmarked) [Compound 27] | > 300 nM | –
27 | CCCC(NC(=O)[C@H]1C[C@H](Oc2cc(C(F)(F)F)ncn2)CN1C(=O)C(NC(=O)C(NC(=O)c1cnccn1)C1CCCCC1)C(C)(C)C)C(=O)C(=O)NC1CC1 (some centres unmarked) [Compound 30] | 100 to 300 nM | –
28 | CCCC(NC(=O)[C@H]1C[C@H](Oc2ncncc2F)CN1C(=O)C(NC(=O)C(NC(=O)c1cnccn1)C1CCCCC1)C(C)(C)C)C(=O)C(=O)NC1CC1 (some centres unmarked) [Compound 32] | < 100 nM | –
29 | CCC[C@H](NC(=O)[C@@H]1C[C@@H](Oc2ccc(Cl)cn2)CN1C(=O)[C@@H](NC(=O)[C@@H](NC(=O)c1cnccn1)C1CCCCC1)C(C)(C)C)C(=O)C(=O)CC(C)C [Compound 75] | > 300 nM | –
30 | CCC[C@H](NC(=O)[C@@H]1C[C@@H](Oc2cccc(OC)c2)CN1C(=O)[C@@H](NC(=O)[C@@H](NC(=O)c1cnccn1)C1CCCCC1)C(C)(C)C)C(=O)C(=O)NC1CC1 [Compound 21] | > 300 nM | –
31 | CCC[C@H](NC(=O)[C@@H]1C[C@@H](Oc2cccc3ccccc23)CN1C(=O)[C@@H](NC(=O)[C@@H](NC(=O)c1ncc[nH]1)C1CCCCC1)C(C)(C)C)C(=O)C(=O)NC1CC1 [Compound 37] | < 100 nM | –
